The values below come from US5668159A, “1,3,4-thiadiazoles and 1,3,4-oxadiazoles as IIb/IIIa antagonists” (The DuPont Merck Pharmaceutical Company, priority 1996, dated 1997).

Structures can show the parent of a compound that is named as a salt.

The subject of one test is platelet aggregation (platelet rich plasma (PRP)). Nature of the test: Platelet Aggregation Assay (inhibition of agonist-induced platelet aggregation in platelet rich plasma). In kind it is cell-based. As to conditions: with esterase, ester prodrugs preincubated with 100 IU/mL porcine liver esterase 2 hours at 37° C., human PRP, 100 μM ADP, read-out: Platelet Aggregation Assay IC50 (with esterase). How it is done:
Platelet Aggregation Assay: Venous blood was obtained from the arm of a healthy human donor who was drug-free and aspirin-free for at least two weeks prior to blood collection. Blood was collected into 10 mL citrated Vacutainer tubes. The blood was centrifuged for 15 minutes at 150× g at room temperature, and platelet-rich plasma (PRP) was removed. The remaining blood was centrifuged for 15 minutes at 1500× g at room temperature, and platelet-poor plasma (PPP) was removed. Samples were assayed on a aggregometer (PAP-4 Platelet Aggregation Profiler), using PPP as the blank (100% transmittance). 200 μL of PRP was added to each micro test tube, and transmittance was set to 0%. 20 μL of various agonists (ADP, collagen, arachidonate, epinephrine, thrombin) were added to each tube, and the aggregation profiles were plotted (% transmittance versus time). The results are expressed as % inhibition of agonist-inducedplatelet aggregation. For the IC50 evaluation, the test compounds were added at various concentrations prior to the activation of the platelets.
Ester prodrugs were preincubated (10^-3 M F.C.) with 100 IU/mL Porcine liver esterase (Sigma Chemical Co., St. Louis, Mo., #E-3128) for 2 hours at 37° C. Aliquots are then diluted in 0.1M Tris, p H 7.4, to the desired concentrations. Aliquots of 20 μl of the esterase pretreated prodrugs are added to 200 μl of human platelet rich plasma. Samples were placed in platelet profiler (aggregometer) for 8 minutes at 37° C., followed by the addition of 100 μM Adenosine Diphosphate, (Sigma Chemical Co., St. Louis, Mo., #A-6521), to induce platelet aggregation. Platelet aggregation was allowed to proceed for 5 minutes. Percent inhibition is calculated using percent aggregation in the presence of the test compound divided by percent aggregation of control, times 100. This value is subtracted from 100, yielding percent inhibition. Calculation of IC50 is performed on a Texas Instruments TI59 with an IC50 program.
Table A below sets forth the antiplatelet activity of representative compounds of the present invention. The indicated compounds were tested for their ability to inhibit platelet aggregation (using platelet rich plasma (PRP)). The IC50 value (the concentration of antagonist which inhibits platelet aggregation by 50% relative to a control lacking the antagonist) is shown. In Table A the IC50 values are expressed as: +++=IC50 of <10 μM; ++=IC50 of […]; +=IC50 of 50-100 μM (μM=micromolar).
As to `CCCCOC(=O)N[C@@H](CNC(=O)Cc1nnc(-c2ccc(C(=N)N)cc2)s1)C(=O)OC` [Example 1, Methyl N^3-[2-{2-(4-amidinophenyl)-1,3,4-thiadiazol-5-yl}-acetyl]-N^2-(n-butyloxycarbonyl)-2,3-(S)-diaminopropionate TFA salt], the IC50 was less than 10 µM. Same read-out and setting: for `COC(=O)[C@H](CNC(=O)Cc1nnc(-c2ccc(C(=N)N)cc2)s1)NS(=O)(=O)c1cccc(C)c1` [Example 25, Methyl N^3-[2-{2-(4-amidinophenyl)-1,3,4-thiadiazol-5-yl}-acetyl]-N^2-(3-methylphenylsulfonyl)-2,3-(S)-diaminopropionate TFA salt] the value was less than 10 µM. On the same count and under the same terms, for `CNC(=N)c1ccc(-c2nnc(CC(=O)NC[C@H](NS(=O)(=O)c3cccc(C)c3)C(=O)OC)s2)cc1` [Example 44, Methyl N^3-[2-{2-(4-N-methylamidinophenyl)-1,3,4-thiadiazol-5-yl}-acetyl]-N^2-(3-methylphenylsulfonyl)-2,3-(S)-diaminopropionate TFA salt] the value was less than 10 µM; for `CCCCNC(=N)c1ccc(-c2nnc(CC(=O)NC[C@H](NS(=O)(=O)c3cccc(C)c3)C(=O)OC)s2)cc1` [Example 64, Methyl N^3-[2-{2-(4-N-n-butylamidinophenyl)-1,3,4-thiadiazol-5-yl}-acetyl]-N^2-(3-methylphenylsulfonyl)-2,3-(S)-diaminopropionate TFA salt], less than 10 µM; for `COC(=O)[C@H](CNC(=O)Cc1nnc(-c2ccc(C(=N)N)cc2)s1)NS(=O)(=O)c1ccccc1C` [Example 88, Methyl N^3-[2-{2-(4-amidinophenyl)-1,3,4-thiadiazol-5-yl}-acetyl]-N -(2-methylphenylsulfonyl)-2,3-(S)-diaminopropionate TFA salt], less than 10 µM. Same read-out and setting: for `COC(=O)[C@H](CNC(=O)Cc1nnc(-c2ccc(C(=N)N)cc2)s1)NS(=O)(=O)c1c(C)noc1C` [Example 96, Methyl N^3-[2-{2-(4-amidinophenyl)-1,3,4-thiadiazol-5-yl}-acetyl]-N^2-(3,5-dimethylisoxazol-4-ylsulfonyl)-2,3-(S)-diaminopropionate TFA salt] the value was less than 10 µM; for `COC(=O)[C@H](CNC(=O)CCCc1nnc(C2CCNCC2)s1)NS(=O)(=O)c1cccc(C)c1` [Example 133, Methyl N^3-[4-{2-(4-piperidinyl)-1,3,4-thiadiazol-5-yl}-butyryl]-N^2-(3-methylphenylsulfonyl)-2,3-(S)-diaminopropionate TFA salt], less than 10 µM; for `COC(=O)[C@H](CNC(=O)Cc1nnc(-c2ccc(NC(=N)N)cc2)s1)NS(=O)(=O)c1cccc(C)c1` [Example 145, Methyl N^3-[2-{2-(4-guanidinophenyl)-1,3,4-thiadiazol-5-yl}-acetyl]-N^2-(3-methylphenylsulfonyl)-2,3-(S)-diaminopropionate TFA salt], less than 10 µM.

For `COC(=O)[C@H](CNC(=O)Cc1nnc(-c2ccc(C(N)=O)cc2)s1)NS(=O)(=O)c1cccc(C)c1` [Example 170, Methyl N^3-[2-{2-(4-amidophenyl)-1,3,4-thiadiazol-5-yl}-acetyl]-N^2-(3-methylphenylsulfonyl)-2,3-(S)-diaminopropionate], the IC50 lay in the range of 50 to 100 µM.

Take `CCCCOC(=O)N[C@@H](CNC(=O)CSc1nnc(-c2ccc(C(=N)N)cc2)s1)C(=O)OC` [Example 192, Methyl N^3-[2-{2-(4-amidinophenyl)-1,3,4-thiadiazol-5-ylthio}acetyl]-N^2-(n-butoxycarbonyl)-2,3-(S)-diaminopropionate HCl salt]: the half-maximal inhibitory concentration (IC50) is less than 10 µM.

With `CCCCOC(=O)N[C@@H](CNC(=O)CSc1nnc(-c2ccc(NC(=N)N)cc2)o1)C(=O)OC` [Example 242, Methyl N^3-[2-{2-(4-guanidinophenyl)-1,3,4-oxadiazol-5-ylthio}acetyl]-N^2-(n-butoxycarbonyl)-2,3-(S)-diaminopropionate TFA salt], the IC50 was 10 to 50 µM. Same read-out and setting: the value for `CCCCOC(=O)N[C@@H](CNC(=O)CSc1nnc(-c2ccc(C(=N)N)cc2)o1)C(=O)OC` [Example 258, Methyl N^3-[2-{2-(4-amidinophenyl)-1,3,4-oxadiazol-5-ylthio}-acetyl]-N^2-(n-butyloxycarbonyl)-2,3-(S)-diamino propionate HCl salt] was less than 10 µM; that for `CCCCOC(=O)N[C@@H](CNC(=O)Cc1nnc(-c2ccc(C(=N)N)cc2)o1)C(=O)OC` [Example 318, Methyl N^3-[2-{2-(4-amidinophenyl)-1,3,4-oxadiazol-5-yl}-acetyl]-N-^2-(n-butyloxycarbonyl)-2,3-(S)-diaminopropionate TFA salt] was 50 to 100 µM. On the same count and under the same terms, the value for `CCCCOC(=O)N[C@@H](CNC(=O)Cc1nnc(-c2ccc(NC(=N)N)cc2)o1)C(=O)OC` [Example 335, Methyl N^3-[2-{2-(4-guanidinophenyl)-1,3,4-oxadiazol-5-yl}-acetyl]-N2-(n-butyloxycarbonyl)-2,3-(S)-diaminopropionate TFA salt] was less than 10 µM.

The test is the same for the next values; noted with them: without esterase, human PRP, read-out: Platelet Aggregation Assay IC50 (without esterase).
As to `CCCCOC(=O)N[C@@H](CNC(=O)Cc1nnc(-c2ccc(C(=N)N)cc2)s1)C(=O)O` [Example 2, N^3-[2-{2-(4-amidinophenyl)-1,3,4-thiadiazol-5-yl}-acetyl]-N^2-(n-butyloxycarbonyl)-2,3-(S)-diaminopropionic acid HCl salt], the IC50 is less than 10 µM. As for `Cc1cccc(S(=O)(=O)N[C@@H](CNC(=O)Cc2nnc(-c3ccc(C(=N)N)cc3)s2)C(=O)O)c1` [Example 26, N^3-[2-{2-(4-amidinophenyl)-1,3,4-thiadiazol-5-yl}-acetyl]-N^2-(3-methylphenylsulfonyl)-2,3-(S)-diaminopropionic acid HCl salt], the IC50 was less than 10 µM. The same measure, in the same setting: for `CNC(=N)c1ccc(-c2nnc(CC(=O)NC[C@H](NS(=O)(=O)c3cccc(C)c3)C(=O)O)s2)cc1` [Example 63, N^3-[2-{2-(4-N-methylamidinophenyl)-1,3,4-thiadiazol-5-yl}-acetyl]-N^2-(3-methylphenylsulfonyl)-2,3-(S)-diaminopropionic acid HCl salt] the value was less than 10 µM. The same measure, in the same setting: the value for `CCCCNC(=N)c1ccc(-c2nnc(CC(=O)NC[C@H](NS(=O)(=O)c3cccc(C)c3)C(=O)O)s2)cc1` [Example 65, N^3-[2-{2-(4-N-n-butylamidinophenyl)-1,3,4-thiadiazol-5-yl}-acetyl]-N^2-(3-methylphenylsulfonyl)-2,3-(S)-diaminopropionic acid HCl salt] was less than 10 µM.

Consider `Cc1ccccc1S(=O)(=O)N[C@@H](CNC(=O)Cc1nnc(-c2ccc(C(=N)N)cc2)s1)C(=O)O` [Example 89, N^3-[2-{2-(4-amidinophenyl)-1,3,4-thiadiazol-5-yl}-acetyl]-N^2-(2-methylphenylsulfonyl)-2,3-(S)-diaminopropionate acid HCl salt], for which the IC50 is less than 10 µM.

With `Cc1noc(C)c1S(=O)(=O)N[C@@H](CNC(=O)Cc1nnc(-c2ccc(C(=N)N)cc2)s1)C(=O)O` [Example 97, N^3-[2-{2-(4-amidinophenyl)-1,3,4-thiadiazol-5-yl}-acetyl]-N^2-(3,5-dimethylisoxazol-4-ylsulfonyl)-2,3-(S)-diaminopropionic acid HCl salt], the IC50 was less than 10 µM. On the same count and under the same terms, for `Cc1cccc(S(=O)(=O)N[C@@H](CNC(=O)CCCc2nnc(C3CCNCC3)s2)C(=O)O)c1` [Example 134, N^3-[4-{2-(4-piperidinyl)-1,3,4-thiadiazol-5-yl}-butyryl]-N^2-(3-methylphenylsulfonyl)-2,3-(S)-diaminopropionic acid TFA salt] the value was less than 10 µM.

`Cc1cccc(S(=O)(=O)N[C@@H](CNC(=O)Cc2nnc(-c3ccc(NC(=N)N)cc3)s2)C(=O)O)c1` [Example 146, N^3-[2-{2-(4-guanidinophenyl)-1,3,4-thiadiazol-5-yl}-acetyl]-N^2-(3-methylphenylsulfonyl)-2,3-(S)-diaminopropionic acid TFA salt]: the IC50 was less than 10 µM.

In the case of `Cc1cccc(S(=O)(=O)N[C@@H](CNC(=O)Cc2nnc(-c3ccc(C(N)=O)cc3)s2)C(=O)O)c1` [Example 171, N^3-[2-{2-(4-Amidophenyl)-1,3,4-thiadiazol-5-yl}-acetyl]-N^2-(3-methylphenylsulfonyl)-2,3-(S)-diaminopropionic acid], the IC50 is less than 10 µM. Same read-out and setting: for `CCCCOC(=O)N[C@@H](CNC(=O)CSc1nnc(-c2ccc(C(=N)N)cc2)s1)C(=O)O` [Example 193, N^3-[2-{2-(4-Amidinophenyl)-1,3,4-thiadiazol-5-ylthio}acetyl]-N^2-(n-butoxycarbonyl)-2,3-(S)-diaminopropionic acid HCl salt] the value was less than 10 µM.

By IC50 is commonly meant the concentration at which inhibition is half-maximal.
